The nature of data set [1]: Microsome stability assay, human liver microsomes. Type of data set: in vitro ADME. The conditions noted are these: 1 μM compound, 0.5 mg/mL microsomal protein; for microsomal CLint at 1 μM / half-life at 1 μM / microsomal CLint at 1 h, 1 µM / half-life at 1 h, 1 µM: human, human liver microsomes, pooled, NADPH, 37° C.; for microsomal CLint at 1 μM / microsomal CLint at 1 h, 1 µM: read-out: Microsome Stability Human liver microsomes Cl; for half-life at 1 μM / half-life at 1 h, 1 µM: read-out: Microsome Stability Human liver microsomes T½. The gist of the method: (§1)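 Compound at 1 μM incubated at 37° C with pooled human or mouse liver microsomes (0.5 mg/mL protein) plus NADPH regenerating system, sampled at 0–60 min; a 60-min no-NADPH incubation also included. Single replicate; LC/MS/MS disappearance from analyte/internal standard peak area ratios, without standard curve.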
For orientation: Liver microsomes are vesicles of endoplasmic reticulum, rich in cytochrome P450 enzymes.

For another data set, the target named is HSD17B2 (Homo sapiens (Human), UniProt P37059). The data set can be described thus: HSD17B2 enzymatic blocking assay. Type of data set: biochemical. The conditions noted are these: 1.8 μM Estradiol, 650 μM NAD; read-out: Inhibition of HSD17B2 IC50. The gist of the method:
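Mammalian-expressed enzyme at 2 ng/μL in 50 mM Tris-HCl pH 7.5 with detergents/BSA, preincubated 15 min at 20° C. with compound (10-point titration). Reaction with 1.8 μM estradiol and 650 μM NAD ran 45 min at 20° C.; NADH measured by NADH-Glo luminescence and IC50 derived.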

The next data set has as its target HSD17B1 (Homo sapiens (Human), UniProt P14061). The data set can be described thus: HSD17B1 enzymatic blocking assay. It is filed as biochemical. The conditions noted are these: 25 μM Estradiol, 500 μM NAD; read-out: Inhibition of HSD17B1 IC50. The gist of the method:
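Activity followed as NADH formed on estradiol oxidation, read by NADH-Glo luminescence after 1 h detection in the dark at room temperature. Compounds preincubated with enzyme 30 min at room temperature; 0.5% DMSO and no-substrate controls. IC50 fitted from luminescence.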

Data set [2] in a line: Microsome stability assay, mouse liver microsomes. The following applies: 1 μM compound, 0.5 mg/mL microsomal protein; for microsomal CLint at 1 h, 1 µM / half-life at 1 h, 1 µM / microsomal CLint at 1 μM / half-life at 1 μM: mouse, mouse liver microsomes, pooled, NADPH, 37° C.; for microsomal CLint at 1 h, 1 µM / microsomal CLint at 1 μM: read-out: Microsome Stability Mouse liver microsomes Cl; for half-life at 1 h, 1 µM / half-life at 1 μM: read-out: Microsome Stability Mouse liver microsomes T½. Type of data set: in vitro ADME. The gist of the method:
as §1

The target of a further data set is HSD17B13 (Homo sapiens (Human), UniProt Q7Z5P4). As to the kind of experiment: HSD17B13 enzymatic inhibition assay (150 nM or 50 nM HSD17B13). It is filed as biochemical.
Sequence of HSD17B13 (Q7Z5P4 other isoform, or with tags, fused parts or gaps): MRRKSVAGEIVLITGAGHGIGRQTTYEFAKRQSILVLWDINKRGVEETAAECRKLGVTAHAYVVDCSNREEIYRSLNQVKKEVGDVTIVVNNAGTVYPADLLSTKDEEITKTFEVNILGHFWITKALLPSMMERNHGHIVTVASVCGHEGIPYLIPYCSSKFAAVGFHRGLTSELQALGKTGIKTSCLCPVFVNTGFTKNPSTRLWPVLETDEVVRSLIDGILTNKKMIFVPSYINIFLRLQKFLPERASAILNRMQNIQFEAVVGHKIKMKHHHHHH
Setting [3] is: 50 nM HSD17B13, read-out: Inhibition of 50 nM of HSD17B13 IC50.

Results on 13 compounds are retold here after patent US11957687B2 (REGENERON PHARMACEUTICALS, INC., priority 2019, dated 2024).

Where two headings read alike, the source gives them in different places. Some results are limits rather than exact numbers.

Sequence of HSD17B1 (P14061 other isoform, or with tags, fused parts or gaps): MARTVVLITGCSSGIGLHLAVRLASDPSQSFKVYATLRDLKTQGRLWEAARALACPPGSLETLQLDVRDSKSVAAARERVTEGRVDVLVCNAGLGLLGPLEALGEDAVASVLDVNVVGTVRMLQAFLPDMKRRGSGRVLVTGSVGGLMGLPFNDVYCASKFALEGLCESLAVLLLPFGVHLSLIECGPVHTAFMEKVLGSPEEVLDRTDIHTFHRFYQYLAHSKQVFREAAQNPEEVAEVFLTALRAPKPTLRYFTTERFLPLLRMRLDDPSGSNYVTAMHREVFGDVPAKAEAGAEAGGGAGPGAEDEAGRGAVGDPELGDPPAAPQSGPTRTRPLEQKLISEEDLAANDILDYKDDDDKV
Sequence of HSD17B2 (P37059 other isoform, or with tags, fused parts or gaps): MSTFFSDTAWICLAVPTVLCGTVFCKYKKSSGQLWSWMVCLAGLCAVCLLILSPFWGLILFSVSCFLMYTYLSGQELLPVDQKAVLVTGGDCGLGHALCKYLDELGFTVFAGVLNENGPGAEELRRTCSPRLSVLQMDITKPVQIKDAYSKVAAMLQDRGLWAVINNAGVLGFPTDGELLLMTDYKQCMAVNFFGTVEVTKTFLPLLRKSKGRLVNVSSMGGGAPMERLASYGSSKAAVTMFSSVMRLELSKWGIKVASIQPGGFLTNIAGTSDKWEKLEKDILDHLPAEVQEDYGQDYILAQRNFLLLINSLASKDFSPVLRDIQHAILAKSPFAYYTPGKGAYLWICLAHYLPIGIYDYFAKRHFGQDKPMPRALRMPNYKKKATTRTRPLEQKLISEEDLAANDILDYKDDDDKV

Usually IC50 stands for the point on the concentration scale where inhibition reaches its midpoint. Regarding `O=C(NC(c1ccccc1)c1ccccc1Cl)c1ccc(C(F)(F)F)[nH]c1=O` (stereo not drawn) [Compound 9, N-((2-chlorophenyl)(phenyl)methyl)-2-oxo-6-(trifluoromethyl)-1,2-dihydropyridine-3-carboxamide], in data set [1], the “Microsome Stability Human liver microsomes % Remaining @60 min” value came to 82.00%, the microsomal CLint at 1 μM is < 9.6 µL/min/mg and the half-life at 1 μM is > 2.42 h. In addition, the IC50 on HSD17B2 is 8.48 µM. Further, on HSD17B1, the IC50 is > 30 µM. In data set [2], the “Microsome Stability Mouse liver microsomes % Remaining @60 min” value was 16.80%; the microsomal CLint at 1 h, 1 µM was found to be 59.6 µL/min/mg; the half-life at 1 h, 1 µM amounted to 0.388 h.

With `Cc1ccc(C(NC(=O)c2ccc(C(F)(F)F)[nH]c2=O)c2ccc(C)cc2)cc1` [Compound 15, N-(di-p-tolylmethyl)-2-oxo-6-(trifluoromethyl)-1,2-dihydropyridine-3-carboxamide], in data set [1], the “Microsome Stability Human liver microsomes % Remaining @60 min” value is on record as 41.70%; the microsomal CLint at 1 h, 1 µM is 30.2 µL/min/mg; the half-life at 1 h, 1 µM stood at 0.765 h. For the same compound, on HSD17B2, the IC50 came out at 11.2 µM. Moreover, at HSD17B13 (setting [3]), the half-maximal inhibitory concentration (IC50) came to 0.26 µM. In addition, on HSD17B1, the half-inhibitory concentration (IC50) was > 30 µM. In data set [2], the “Microsome Stability Mouse liver microsomes % Remaining @60 min” value is 5.60%; the microsomal CLint at 1 h, 1 µM came out at 96.8 µL/min/mg; the half-life at 1 h, 1 µM is 0.238 h.

On to `O=C(NC(c1ccc(Cl)cc1)c1ccc(Cl)cc1)c1ccc(C(F)(F)F)[nH]c1=O` [Compound 17, N-(bis(4-chlorophenyl)methyl)-2-oxo-6-(trifluoromethyl)-1,2-dihydropyridine-3-carboxamide], for which, in data set [1], the “Microsome Stability Human liver microsomes % Remaining @60 min” value was 97.60%, the microsomal CLint at 1 μM is < 9.6 µL/min/mg and the half-life at 1 μM is > 2.42 h. Further, the IC50 on HSD17B2 was 10.9 µM. For the same compound, the IC50 at HSD17B13 (setting [3]) came to 0.96 µM. Besides, the IC50 at HSD17B1 is > 30 µM. Besides, in data set [2], the “Microsome Stability Mouse liver microsomes % Remaining @60 min” value was determined as 70.60%; the microsomal CLint at 1 h, 1 µM came to 10.2 µL/min/mg; the half-life at 1 h, 1 µM amounted to 2.27 h.

`O=C(NC(c1ccccc1)c1ccc(Cl)cc1)c1ccc(C(F)(F)F)[nH]c1=O` (stereo not drawn) [Compound 21, N-((4-chlorophenyl)(phenyl)methyl)-2-oxo-6-(trifluoromethyl)-1,2-dihydropyridine-3-carboxamide]: in data set [1], the “Microsome Stability Human liver microsomes % Remaining @60 min” value is 73.00%; the microsomal CLint at 1 h, 1 µM was determined as 10.8 µL/min/mg; the half-life at 1 h, 1 µM was determined as 2.14 h. For the same compound, the IC50 on HSD17B2 turned out to be 12 µM. In addition, the IC50 on HSD17B13 (setting [3]) was 0.75 µM. For the same compound, on HSD17B1, the IC50 is > 30 µM.

Turning to `O=C(NC1c2ccccc2-c2ccccc21)c1ccc(C(F)(F)F)[nH]c1=O` [Compound 25, N-(9H-fluoren-9-yl)-2-oxo-6-(trifluoromethyl)-1,2-dihydropyridine-3-carboxamide], in data set [1], the “Microsome Stability Human liver microsomes % Remaining @60 min” value came out at 1.00%; the microsomal CLint at 1 h, 1 µM came to 265 µL/min/mg; the half-life at 1 h, 1 µM was found to be 0.087 h. In addition, the IC50 at HSD17B2 was 18.2 µM. At HSD17B13 (setting [3]), the IC50 stood at 0.53 µM. Also, at HSD17B1, the IC50 is > 30 µM.

For the compound `Cc1ccc(C(NC(=O)c2ccc(C(F)(F)F)[nH]c2=O)c2ccccc2)cc1` (stereo not drawn) [Compound 27, N-(phenyl(p-tolyl)methyl)-2-oxo-6-(trifluoromethyl)-1,2-dihydropyridine-3-carboxamide], the “Microsome Stability Human liver microsomes % Remaining @60 min” value in data set [1] is listed as 0.40%. Moreover, in data set [1], the microsomal CLint at 1 h, 1 µM was 511 µL/min/mg. Besides, in data set [1], the half-life at 1 h, 1 µM was 0.0452 h. Moreover, the IC50 is 16.8 µM at HSD17B2; 1.06 µM on HSD17B13 (setting [3]); 0.47 µM on HSD17B13 (150 nM HSD17B13, read-out: Inhibition of 150 nM of HSD17B13 IC50); > 30 µM at HSD17B1.

Regarding `O=C(Nc1cccc2c(O)cccc12)c1ccc(C(F)(F)F)[nH]c1=O` [Compound 223, N-(5-hydroxynaphthalen-1-yl)-2-oxo-6-(trifluoromethyl)-1,2-dihydropyridine-3-carboxamide], in data set [1], the “Microsome Stability Human liver microsomes % Remaining @60 min” value worked out at 60.30%; the microsomal CLint at 1 h, 1 µM came to 14.8 µL/min/mg; the half-life at 1 h, 1 µM was 1.56 h. Besides, the IC50 on HSD17B2 amounted to 28.6 µM. The IC50 on HSD17B13 (setting [3]) is 0.35 µM. Besides, the IC50 at HSD17B1 was > 30 µM. In data set [2], the “Microsome Stability Mouse liver microsomes % Remaining @60 min” value was 83.80%, the microsomal CLint at 1 μM is < 9.6 µL/min/mg and the half-life at 1 μM was > 2.42 h.

Turning to `Nc1cccc2c(NC(=O)c3ccc(C(F)(F)F)[nH]c3=O)cccc12` [Compound 228, N-(5-aminonaphthalen-1-yl)-2-oxo-6-(trifluoromethyl)-1,2-dihydropyridine-3-carboxamide], in data set [1], the “Microsome Stability Human liver microsomes % Remaining @60 min” value was 60.40%; the microsomal CLint at 1 h, 1 µM was found to be 16.4 µL/min/mg; the half-life at 1 h, 1 µM was found to be 1.41 h. In addition, at HSD17B2, the IC50 was determined as 28 µM. Also, the half-inhibitory concentration (IC50) on HSD17B13 (setting [3]) worked out at 0.56 µM. For the same compound, the IC50 at HSD17B1 was determined as 24.8 µM. In addition, in data set [2], the “Microsome Stability Mouse liver microsomes % Remaining @60 min” value is 76.60%, the microsomal CLint at 1 μM was < 9.6 µL/min/mg and the half-life at 1 μM was > 2.42 h.

As to `O=C(NC1CCCc2c(O)cccc21)c1ccc(C(F)(F)F)[nH]c1=O` (stereo not drawn) [Compound 230, N-(5-hydroxy-1,2,3,4-tetrahydronaphthalen-1-yl)-2-oxo-6-(trifluoromethyl)-1,2-dihydropyridine-3-carboxamide], the “Microsome Stability Human liver microsomes % Remaining @60 min” value in data set [1] was 83.40%. Moreover, the microsomal CLint at 1 μM in data set [1] and in data set [2] was < 9.6 µL/min/mg each time. Also, the half-life at 1 μM in data set [1] and in data set [2] was > 2.42 h in each case. For the same compound, the values for the IC50 on HSD17B2, at HSD17B13 (setting [3]) and on HSD17B1 were 40.7 µM, 0.21 µM and > 30 µM, respectively. Besides, the “Microsome Stability Mouse liver microsomes % Remaining @60 min” value in data set [2] was 94.70%.

As to `COc1ccc2c(c1)Sc1cc(OC)ccc1C2NC(=O)c1ccc(C(F)(F)F)[nH]c1=O` [Compound 241, N-(3,6-dimethoxy-9H-thioxanthen-9-yl)-2-oxo-6-(trifluoromethyl)-1,2-dihydropyridine-3-carboxamide], in data set [1], the “Microsome Stability Human liver microsomes % Remaining @60 min” value is given as 78%, the microsomal CLint at 1 μM was < 9.6 µL/min/mg and the half-life at 1 μM was > 2.42 h. Besides, the concentration for half-maximal inhibition (IC50) on HSD17B2 is > 100 µM. Further, the IC50 at HSD17B13 (setting [3]) was determined as 0.03 µM. On HSD17B1, the IC50 turned out to be 15.8 µM. Further, in data set [2], the “Microsome Stability Mouse liver microsomes % Remaining @60 min” value came out at 64%; the microsomal CLint at 1 h, 1 µM worked out at 13.4 µL/min/mg; the half-life at 1 h, 1 µM stood at 1.72 h.

Consider `Cc1ccc2c(c1)Sc1cc(C)ccc1C2NC(=O)c1ccc(C(F)(F)F)[nH]c1=O` [Compound 252, N-(3,6-dimethyl-9H-thioxanthen-9-yl)-2-oxo-6-(trifluoromethyl)-1,2-dihydropyridine-3-carboxamide], for which, in data set [1], the “Microsome Stability Human liver microsomes % Remaining @60 min” value is given as 73.50%; the microsomal CLint at 1 h, 1 µM was determined as 11 µL/min/mg; the half-life at 1 h, 1 µM was 2.1 h. In addition, at HSD17B2, the IC50 amounted to 19.3 µM. The IC50 on HSD17B13 (setting [3]) came out at 0.01 µM. Moreover, the IC50 on HSD17B1 was 5.84 µM. For the same compound, in data set [2], the “Microsome Stability Mouse liver microsomes % Remaining @60 min” value was found to be 28.60%; the microsomal CLint at 1 h, 1 µM was 41.7 µL/min/mg; the half-life at 1 h, 1 µM was 0.553 h.

With `Cc1ccc2c(c1)Oc1cc(C)ccc1C2NC(=O)c1cc(OC2CCOCC2)c(C(F)(F)F)[nH]c1=O` [Compound 260, N-(3,6-dimethyl-9H-xanthen-9-yl)-2-oxo-5-((tetrahydro-2H-pyran-4-yl)oxy)-6-(trifluoromethyl)-1,2-dihydropyridine-3-carboxamide], in data set [1], the “Microsome Stability Human liver microsomes % Remaining @60 min” value is reported as 24.50%; the microsomal CLint at 1 h, 1 µM is 46.9 µL/min/mg; the half-life at 1 h, 1 µM amounted to 0.492 h. In addition, the IC50 at HSD17B2 came out at 32.1 µM. The IC50 on HSD17B13 (setting [3]) was determined as 0.02 µM. Besides, the IC50 at HSD17B1 is 11.1 µM. In data set [2], the “Microsome Stability Mouse liver microsomes % Remaining @60 min” value was determined as 81.70%, the microsomal CLint at 1 μM was < 9.6 µL/min/mg and the half-life at 1 μM was > 2.42 h.

For `COc1ccc2c(c1)Sc1ccccc1C2NC(=O)c1ccc(C(F)F)[nH]c1=O` (stereo not drawn) [Compound 272, 6-(difluoromethyl)-N-(3-methoxy-9H-thioxanthen-9-yl)-2-oxo-1,2-dihydropyridine-3-carboxamide], the “Microsome Stability Human liver microsomes % Remaining @60 min” value in data set [1] turned out to be 73.40%. In addition, the microsomal CLint at 1 h, 1 µM was 12.1 µL/min/mg in data set [1] and 68.2 µL/min/mg in data set [2]. The half-life at 1 h, 1 µM in data set [1] amounted to 1.9 h; in data set [2], 0.338 h. The IC50 at HSD17B2 was 29.7 µM; on HSD17B13 (setting [3]) it was 0.43 µM; at HSD17B1 it was > 30 µM. Also, the “Microsome Stability Mouse liver microsomes % Remaining @60 min” value in data set [2] was 13.10%.
